Experiments:
Assay type in all cases: binding
panel of 442 kinases [1] = biological target: T1, panel of 442 kinases (Homo sapiens, UniProt P16234); conditions: Compound Concentration 10 µM
T1 construct: purchased KINOMEscan
Text: (§1) We assessed the selectivity of members of this scaffold using the KINOMEscan methodology across a near comprehensive panel of 442 kinases [[18,27]].

panel of 442 kinases [2] = biological target: T2, panel of 442 kinases (Homo sapiens, UniProt P78362); conditions: kinase SRPK2; compound concentration 10 µM
T2 construct: purchased KINOMEscan
Text: as §1

panel of 442 kinases [3] = biological target: T3, panel of 442 kinases (Homo sapiens, UniProt P11309); conditions: Compound Concentration 10 µM
T3 construct: purchased KINOMEscan
Text: as §1

panel of 442 kinases [4] = biological target: T4, panel of 442 kinases (Homo sapiens, UniProt P08581, M1250T); conditions: Compound Concentration 10 µM
T4 construct: purchased KINOMEscan
Text: as §1

T3 sequence (P11309 whole entry): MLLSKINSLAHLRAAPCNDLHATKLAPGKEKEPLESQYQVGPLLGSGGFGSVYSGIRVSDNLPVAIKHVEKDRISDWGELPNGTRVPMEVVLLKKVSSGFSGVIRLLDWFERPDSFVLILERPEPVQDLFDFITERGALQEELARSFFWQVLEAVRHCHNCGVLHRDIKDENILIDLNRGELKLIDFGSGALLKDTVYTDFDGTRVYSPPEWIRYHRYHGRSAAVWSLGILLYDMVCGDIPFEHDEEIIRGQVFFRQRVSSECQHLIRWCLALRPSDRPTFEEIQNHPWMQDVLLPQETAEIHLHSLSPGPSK
T1 sequence (P16234 24-1089): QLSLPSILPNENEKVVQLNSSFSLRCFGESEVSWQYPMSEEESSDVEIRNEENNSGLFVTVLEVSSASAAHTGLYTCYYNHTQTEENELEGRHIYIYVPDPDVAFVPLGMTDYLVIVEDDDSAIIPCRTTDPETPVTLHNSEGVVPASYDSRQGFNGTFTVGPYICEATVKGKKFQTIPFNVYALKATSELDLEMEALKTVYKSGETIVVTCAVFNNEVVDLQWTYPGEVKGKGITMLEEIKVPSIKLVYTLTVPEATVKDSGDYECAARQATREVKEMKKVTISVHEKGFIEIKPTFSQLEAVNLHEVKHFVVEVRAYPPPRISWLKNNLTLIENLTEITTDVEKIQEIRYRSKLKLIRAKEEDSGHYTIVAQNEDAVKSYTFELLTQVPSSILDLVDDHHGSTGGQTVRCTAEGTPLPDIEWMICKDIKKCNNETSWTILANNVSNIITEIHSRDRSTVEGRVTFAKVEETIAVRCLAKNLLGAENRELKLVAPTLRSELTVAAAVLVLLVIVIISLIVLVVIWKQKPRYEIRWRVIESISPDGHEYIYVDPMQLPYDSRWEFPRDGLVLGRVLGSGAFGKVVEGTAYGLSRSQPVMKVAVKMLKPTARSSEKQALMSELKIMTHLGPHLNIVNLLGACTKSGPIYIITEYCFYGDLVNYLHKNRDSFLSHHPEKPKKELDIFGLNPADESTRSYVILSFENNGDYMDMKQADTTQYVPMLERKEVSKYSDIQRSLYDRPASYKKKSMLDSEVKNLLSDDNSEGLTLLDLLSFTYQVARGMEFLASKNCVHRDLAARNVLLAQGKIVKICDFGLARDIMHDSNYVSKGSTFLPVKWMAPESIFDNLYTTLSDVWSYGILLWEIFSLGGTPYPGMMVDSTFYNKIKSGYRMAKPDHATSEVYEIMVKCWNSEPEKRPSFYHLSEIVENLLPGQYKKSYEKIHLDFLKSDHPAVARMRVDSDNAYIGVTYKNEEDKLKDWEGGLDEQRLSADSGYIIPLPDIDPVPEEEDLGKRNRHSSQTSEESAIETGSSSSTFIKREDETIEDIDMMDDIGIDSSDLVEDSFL
T2 sequence (P78362 whole entry): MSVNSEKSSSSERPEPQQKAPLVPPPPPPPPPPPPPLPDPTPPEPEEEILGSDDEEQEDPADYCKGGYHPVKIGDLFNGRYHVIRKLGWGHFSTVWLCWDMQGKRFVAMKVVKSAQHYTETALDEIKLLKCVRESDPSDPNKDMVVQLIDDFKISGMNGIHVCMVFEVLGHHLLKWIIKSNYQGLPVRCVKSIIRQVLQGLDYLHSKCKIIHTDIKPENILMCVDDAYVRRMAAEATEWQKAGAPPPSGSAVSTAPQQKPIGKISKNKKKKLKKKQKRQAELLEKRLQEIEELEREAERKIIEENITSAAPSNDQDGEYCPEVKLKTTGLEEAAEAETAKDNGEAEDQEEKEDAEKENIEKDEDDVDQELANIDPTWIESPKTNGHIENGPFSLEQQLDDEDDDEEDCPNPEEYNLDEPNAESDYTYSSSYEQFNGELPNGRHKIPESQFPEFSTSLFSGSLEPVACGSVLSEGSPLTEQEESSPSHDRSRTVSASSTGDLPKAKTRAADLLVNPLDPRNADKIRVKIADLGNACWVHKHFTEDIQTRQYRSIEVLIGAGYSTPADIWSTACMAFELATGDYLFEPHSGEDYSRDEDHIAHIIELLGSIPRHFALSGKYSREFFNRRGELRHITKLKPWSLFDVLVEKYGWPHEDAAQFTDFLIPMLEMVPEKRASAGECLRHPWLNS
T4 sequence (P08581 25-1390 M1250T): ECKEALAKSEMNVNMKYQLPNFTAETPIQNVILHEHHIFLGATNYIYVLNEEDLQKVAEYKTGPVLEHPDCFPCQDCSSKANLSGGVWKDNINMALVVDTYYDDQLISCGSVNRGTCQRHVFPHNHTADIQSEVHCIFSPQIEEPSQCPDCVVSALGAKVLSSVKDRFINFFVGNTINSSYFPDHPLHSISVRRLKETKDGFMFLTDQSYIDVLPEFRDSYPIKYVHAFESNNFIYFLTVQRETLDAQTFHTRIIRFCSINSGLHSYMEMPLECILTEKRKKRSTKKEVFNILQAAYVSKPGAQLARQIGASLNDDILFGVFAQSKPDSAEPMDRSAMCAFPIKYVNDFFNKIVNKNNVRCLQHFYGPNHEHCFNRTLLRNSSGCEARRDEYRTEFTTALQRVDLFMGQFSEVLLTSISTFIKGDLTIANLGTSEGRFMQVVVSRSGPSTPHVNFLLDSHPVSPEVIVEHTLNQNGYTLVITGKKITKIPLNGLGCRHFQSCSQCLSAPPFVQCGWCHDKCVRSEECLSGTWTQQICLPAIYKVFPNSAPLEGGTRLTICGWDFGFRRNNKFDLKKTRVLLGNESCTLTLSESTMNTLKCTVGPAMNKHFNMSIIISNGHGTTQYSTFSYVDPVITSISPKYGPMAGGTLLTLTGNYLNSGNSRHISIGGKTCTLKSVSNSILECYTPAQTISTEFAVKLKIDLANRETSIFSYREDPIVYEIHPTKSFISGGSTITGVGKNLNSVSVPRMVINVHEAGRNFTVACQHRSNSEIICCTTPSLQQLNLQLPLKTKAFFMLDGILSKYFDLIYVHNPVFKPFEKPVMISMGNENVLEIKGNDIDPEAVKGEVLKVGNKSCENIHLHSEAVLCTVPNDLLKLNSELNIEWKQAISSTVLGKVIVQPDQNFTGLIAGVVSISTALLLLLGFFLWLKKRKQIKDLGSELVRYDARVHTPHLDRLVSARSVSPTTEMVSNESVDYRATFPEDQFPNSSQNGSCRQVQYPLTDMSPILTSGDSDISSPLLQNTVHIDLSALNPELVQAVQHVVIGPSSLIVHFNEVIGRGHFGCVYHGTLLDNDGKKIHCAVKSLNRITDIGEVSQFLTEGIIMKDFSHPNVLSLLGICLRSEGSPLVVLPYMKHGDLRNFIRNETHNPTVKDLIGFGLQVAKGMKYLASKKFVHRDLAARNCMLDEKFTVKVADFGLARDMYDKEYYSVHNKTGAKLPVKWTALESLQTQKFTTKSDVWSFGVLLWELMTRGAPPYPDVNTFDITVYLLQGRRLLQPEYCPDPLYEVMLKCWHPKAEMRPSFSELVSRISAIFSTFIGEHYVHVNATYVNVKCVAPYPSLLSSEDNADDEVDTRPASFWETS

COc1cc(C(=O)N2CCC(N3CCN(C)CC3)CC2)ccc1Nc1ncc2c(n1)N(C1CCCC1)c1ccccc1C(=O)N2C [Compound 25, 11-cyclopentyl-2-((2-methoxy-4-(4-(4-methylpiperazin-1-yl)piperidine-1-carbonyl)phenyl)amino)-5-methyl-5H-benzo[e]pyrimido[5,4-b][1,4]diazepin-6(11H)-one]
KINOMEscan: PDGFRA (panel of 442 kinases [1]): 100 | % Ctrl, SRPK2 (panel of 442 kinases [2]): 86 % Ctrl | KINOMEscan: PIM1 (panel of 442 kinases [3]): 97 | KINOMEscan: MET(M1250T) (panel of 442 kinases [4]): 95

COc1cc(C(=O)N2CCC(N3CCN(C)CC3)CC2)ccc1Nc1ncc2c(n1)N1CCc3cccc(c31)C(=O)N2C [Compound 24]
% Ctrl, SRPK2 (panel of 442 kinases [2]): 98 % Ctrl | KINOMEscan: MET(M1250T) (panel of 442 kinases [4]): 88

COc1cc(C(=O)N2CCC(N3CCN(C)CC3)CC2)ccc1Nc1ncc2c(n1)N(C)c1ccccc1C(=O)N2C [15 (LRRK2-IN-1)]
KINOMEscan: PDGFRA (panel of 442 kinases [1]): 100 | % Ctrl, SRPK2 (panel of 442 kinases [2]): 100 % Ctrl | KINOMEscan: PIM1 (panel of 442 kinases [3]): 100 | KINOMEscan: MET(M1250T) (panel of 442 kinases [4]): 96

CCOc1cc(C(=O)N2CCC(N3CCN(C)CC3)CC2)ccc1Nc1ncc2c(n1)N(C1CCCC1)c1ccccc1C(=O)N2C [Compound 26]
KINOMEscan: PDGFRA (panel of 442 kinases [1]): 100 | % Ctrl, SRPK2 (panel of 442 kinases [2]): 100 % Ctrl | KINOMEscan: PIM1 (panel of 442 kinases [3]): 100 | KINOMEscan: MET(M1250T) (panel of 442 kinases [4]): 100
